Patent US12503438B2, “Compounds for the treatment of kinase-dependent disorders” (Exelixis, Inc., priority 2019, dated 2025)

Target: T1, Mer (Homo sapiens, UniProt Q12866)
T1 construct: host or cells: 293A cells (Thermo Fisher #R70507)
T1 sequence (Q12866 21-999): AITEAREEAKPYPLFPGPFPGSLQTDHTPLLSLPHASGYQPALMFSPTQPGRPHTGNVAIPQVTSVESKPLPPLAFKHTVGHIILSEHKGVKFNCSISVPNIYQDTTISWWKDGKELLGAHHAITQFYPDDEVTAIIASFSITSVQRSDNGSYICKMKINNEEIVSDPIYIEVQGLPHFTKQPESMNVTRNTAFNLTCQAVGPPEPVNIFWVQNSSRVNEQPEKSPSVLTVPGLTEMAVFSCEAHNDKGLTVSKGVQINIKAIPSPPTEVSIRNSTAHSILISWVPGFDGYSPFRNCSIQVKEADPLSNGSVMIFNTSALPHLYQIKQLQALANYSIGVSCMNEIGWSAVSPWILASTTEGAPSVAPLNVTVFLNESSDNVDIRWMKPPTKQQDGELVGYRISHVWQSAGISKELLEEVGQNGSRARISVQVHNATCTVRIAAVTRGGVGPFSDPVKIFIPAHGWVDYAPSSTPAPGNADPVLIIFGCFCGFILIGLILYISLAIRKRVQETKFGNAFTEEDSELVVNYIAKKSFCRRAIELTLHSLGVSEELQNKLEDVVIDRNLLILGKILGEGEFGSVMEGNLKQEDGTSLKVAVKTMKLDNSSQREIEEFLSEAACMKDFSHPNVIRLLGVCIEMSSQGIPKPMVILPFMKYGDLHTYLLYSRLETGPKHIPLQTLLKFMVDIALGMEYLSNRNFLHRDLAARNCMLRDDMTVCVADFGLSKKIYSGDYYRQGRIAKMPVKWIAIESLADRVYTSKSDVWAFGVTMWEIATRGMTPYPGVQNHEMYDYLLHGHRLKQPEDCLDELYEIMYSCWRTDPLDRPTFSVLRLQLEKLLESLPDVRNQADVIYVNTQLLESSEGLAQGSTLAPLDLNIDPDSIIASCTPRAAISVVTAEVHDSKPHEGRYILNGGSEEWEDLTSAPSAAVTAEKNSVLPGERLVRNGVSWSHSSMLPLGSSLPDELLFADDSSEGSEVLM
Assay: Mer autophosphorylation ELISA in transient transfected 293A cells
Assay type: cell-based
Conditions: cellular activity; MERTK-transfected 293A cells, phospho-Mer ELISA
Method: 293A cells (Thermo Fisher #R70507) were seeded at 1.5×10^6 cells/well onto 100 mm dish (Greiner #664169), in DMEM (Thermo Fisher #11995-040) containing 10% FBS (Thermo Fisher #26140-079), 1% MEM NEAA (Thermo Fisher #11140-050), 1% GlutaMax (Thermo Fisher #35050-061), and 1% Penicillin Streptomycin (Thermo Fisher #15140-122). 293A cells were incubated at 37° C., 5% CO2 for 24 h and then transfected with 6 μg MERTK DNA (Genecopoeia #EX-Z8208-M02) using TransIT LT1 transfection reagent (Mirus-Bio #MIR2305). After 24 h incubation, the transfected 293A cells were seeded at 1×10^5 cells/well onto 96-well plates (Corning #3904) in DMEM growth medium overnight. Test compounds were serially diluted to produce an 8-point dose curve in fresh serum-free medium to a final concentration of 0.3% DMSO (vehicle) and added to the cells and incubated for 1 h. Cells were then immediately lysed with 150 μL of cold 1× lysis buffer [20 mM Tris, 137 mM sodium chloride, 2 mM EDTA, 10% glycerol, 1% NP-40 alternative, 1 mM activated sodium orthovanadate, 1 mM PefaBloc SC (Sigma-Aldrich #11429868001), protease/phosphatase inhibitor tablet (Thermo Fisher #A32959)]. Lysates were clarified by centrifugation and 50 μL/well added into the human phospho-Mer DuoSet IC ELISA (R&D Systems #DYC2579-2). Assay was performed according to manufacturer's instructions and sample phospho-Mer concentrations were extrapolated using human phospho-Mer control (R&D Systems #841793) as a standard. Positive control wells (100% activity) contained DMSO-treated cell lysates. Negative control wells (0% activity) contained reference inhibitor-treated cell lysates. IC50 values were calculated by nonlinear regression analysis using a 4-parameter logistic curve fit in ActivityBase XE (IDBS).

Row | IC50 [nM] | Structure (SMILES)
1 | 10 to 100 | O=C(Nc1ccc(F)cc1)C1(C(=O)Nc2ccc(Oc3ccnc4cc(-c5cncc(F)c5)ccc34)cc2)CC1 [Compound 45, 1-N′-(4-Fluorophenyl)-1-N-[4-[7-(5-fluoropyridin-3-yl)quinolin-4-yl]oxyphenyl]cyclopropane-1,1-dicarboxamide]
2 | 10 to 100 | Nc1ccc(-c2ccc3c(Oc4ccc(NC(=O)C5(C(=O)Nc6ccc(F)cc6)CC5)cc4)ccnc3c2)cn1 [Compound 38, 1-N-[4-[7-(6-Aminopyridin-3-yl)quinolin-4-yl]oxyphenyl]-1-N′-(4-fluorophenyl)cyclopropane-1,1-dicarboxamide]
3 | 10 to 100 | O=C(Nc1ccc(F)cc1)C1(C(=O)Nc2ccc(Oc3ccnc4cc(-c5cnc6[nH]ncc6c5)ccc34)cc2)CC1 [Compound 39, 1-N′-(4-Fluorophenyl)-1-N-[4-[7-(1H-pyrazolo[3,4-b]pyridin-5-yl)quinolin-4-yl]oxyphenyl]cyclopropane-1,1-dicarboxamide]
4 | 100 to 300 | Cc1cncc(-c2ccc3c(Oc4ccc(NC(=O)C5(C(=O)Nc6ccc(F)cc6)CC5)cc4)ccnc3c2)c1 [Compound 46, 1-N′-(4-Fluorophenyl)-1-N-[4-[7-(5-methylpyridin-3-yl)quinolin-4-yl]oxyphenyl]cyclopropane-1,1-dicarboxamide]
5 | 10 to 100 | COc1cc(-c2ccc3c(Oc4ccc(NC(=O)C5(C(=O)Nc6ccc(F)cc6)CC5)cc4)ccnc3c2)ccn1 [Compound 31, 1-N′-(4-Fluorophenyl)-1-N-[4-[7-(2-methoxypyridin-4-yl)quinolin-4-yl]oxyphenyl]cyclopropane-1,1-dicarboxamide]
6 | 10 to 100 | O=C(Nc1ccc(F)cc1)C1(C(=O)Nc2cc(F)c(Oc3ccnc4cc(-c5cnn(C(F)F)c5)ccc34)cc2F)CC1 [Compound 118, 1-N′-[4-[7-[1-(Difluoromethyl)pyrazol-4-yl]quinolin-4-yl]oxy-2,5-difluorophenyl]-1-N-(4-fluorophenyl)cyclopropane-1,1-dicarboxamide]
7 | 10 to 100 | Cc1cc2c(Oc3c(F)cc(NC(=O)C4(C(=O)Nc5ccc(F)cc5)CC4)c(F)c3F)ccnc2cc1-c1cnn(C)c1 [Compound 110, 1-N-(4-Fluorophenyl)-1-N′-[2,3,5-trifluoro-4-[6-methyl-7-(1-methylpyrazol-4-yl)quinolin-4-yl]oxyphenyl]cyclopropane-1,1-dicarboxamide]
8 | 10 to 100 | O=C(Nc1ccc(F)cc1)C1(C(=O)Nc2ccc(Oc3ccnc4cc(-c5cc6n(n5)CCC6)ccc34)cc2)CC1 [Compound 124, 1-N-[4-[7-(5,6-Dihydro-4H-pyrrolo[1,2-b]pyrazol-2-yl)quinolin-4-yl]oxyphenyl]-1-N′-(4-fluorophenyl)cyclopropane-1,1-dicarboxamide]
9 | 100 to 300 | O=C(Nc1ccc(F)cc1)C1(C(=O)Nc2ccc(Oc3ccnc4cc(-c5cccnc5O)ccc34)cc2)CC1 [Compound 52, 1-N′-(4-Fluorophenyl)-1-N-[4-[7-(2-hydroxypyridin-3-yl)quinolin-4-yl]oxyphenyl]cyclopropane-1,1-dicarboxamide]
10 | 10 to 100 | O=C(Nc1ccc(F)cc1)C1(C(=O)Nc2ccc(Oc3ccnc4cc(-c5cnn6c5CCC6)ccc34)cc2)CC1 [Compound 29, 1-N-[4-[7-(5,6-Dihydro-4H-pyrrolo[1,2-b]pyrazol-3-yl)quinolin-4-yl]oxyphenyl]-1-N′-(4-fluorophenyl)cyclopropane-1,1-dicarboxamide]
11 | 10 to 100 | O=C(Nc1ccc(F)cc1)C1(C(=O)Nc2ccc(Oc3ccnc4cc(-c5ccnc(F)c5)ccc34)cc2)CC1 [Compound 33, 1-N′-(4-Fluorophenyl)-1-N-[4-[7-(2-fluoropyridin-4-yl)quinolin-4-yl]oxyphenyl]cyclopropane-1,1-dicarboxamide]
12 | 10 to 100 | O=C(Nc1ccc(F)cc1)C1(C(=O)Nc2ccc(Oc3ccnc4cc(-c5ccncn5)ccc34)cc2)CC1 [Compound 114, 1-N′-(4-Fluorophenyl)-1-N-[4-(7-pyrimidin-4-ylquinolin-4-yl)oxyphenyl]cyclopropane-1,1-dicarboxamide]
13 | 10 to 100 | O=C(Nc1ccc(F)cc1)C1(C(=O)Nc2ccc(Oc3ccnc4cc(-c5cnn(C(F)F)c5)ccc34)c(F)c2)CC1 [Compound 123, 1-N′-[4-[7-[1-(Difluoromethyl)pyrazol-4-yl]quinolin-4-yl]oxy-3-fluorophenyl]-1-N-(4-fluorophenyl)cyclopropane-1,1-dicarboxamide]
14 | 10 to 100 | Cc1cc2c(Oc3ccc(NC(=O)C4(C(=O)Nc5ccc(F)cc5)CC4)cc3)ccnc2cc1-c1ncc[nH]1 [Compound 120, 1-N′-(4-Fluorophenyl)-1-N-[4-[7-(1H-imidazol-2-yl)-6-methylquinolin-4-yl]oxyphenyl]cyclopropane-1,1-dicarboxamide]
15 | 10 to 100 | O=C(Nc1ccc(F)cc1)C1(C(=O)Nc2ccc(Oc3ccnc4cc(-c5ccc(O)nc5)ccc34)cc2)CC1 [Compound 51, 1-N′-(4-Fluorophenyl)-1-N-[4-[7-(6-hydroxypyridin-3-yl)quinolin-4-yl]oxyphenyl]cyclopropane-1,1-dicarboxamide]
16 | 10 to 100 | Cc1cc(-c2ccc3c(Oc4ccc(NC(=O)C5(C(=O)Nc6ccc(F)cc6)CC5)cc4)ccnc3c2)ccn1 [Compound 30, 1-N′-(4-Fluorophenyl)-1-N-[4-[7-(2-methylpyridin-4-yl)quinolin-4-yl]oxyphenyl]cyclopropane-1,1-dicarboxamide]
17 | 10 to 100 | O=C(Nc1ccc(F)cc1)C1(C(=O)Nc2ccc(Oc3ccnc4cc(-c5ccc[n+]([O-])c5)ccc34)cc2)CC1 [Compound 109, 1-N′-(4-Fluorophenyl)-1-N-[4-[7-(1-oxidopyridin-1-ium-3-yl)quinolin-4-yl]oxyphenyl]cyclopropane-1,1-dicarboxamide]
18 | 100 to 300 | CC(C)Oc1ccc(-c2ccc3c(Oc4ccc(NC(=O)C5(C(=O)Nc6ccc(F)cc6)CC5)cc4)ccnc3c2)cn1 [Compound 50, 1-N′-(4-Fluorophenyl)-1-N-[4-[7-(6-propan-2-yloxypyridin-3-yl)quinolin-4-yl]oxyphenyl]cyclopropane-1,1-dicarboxamide]
19 | 10 to 100 | Cn1cc(-c2ccc3c(Oc4ccc(NC(=O)C5(C(=O)Nc6ccc(F)cc6)CC5)cc4)ccnc3c2)ccc1=O [Compound 119, 1-N′-(4-Fluorophenyl)-1-N-[4-[7-(1-methyl-6-oxopyridin-3-yl)quinolin-4-yl]oxyphenyl]cyclopropane-1,1-dicarboxamide]
20 | 10 to 100 | Cn1ccc(-c2ccc3c(Oc4ccc(NC(=O)C5(C(=O)Nc6ccc(F)cc6)CC5)cc4)ccnc3c2)cc1=O [Compound 117, 1-N′-(4-Fluorophenyl)-1-N-[4-[7-(1-methyl-2-oxopyridin-4-yl)quinolin-4-yl]oxyphenyl]cyclopropane-1,1-dicarboxamide]
21 | 10 to 100 | CC(C)n1cc(-c2ccc3c(Oc4ccc(NC(=O)C5(C(=O)Nc6ccc(F)cc6)CC5)cc4)ccnc3c2)cn1 [Compound 21, 1-N′-(4-Fluorophenyl)-1-N-[4-[7-(1-propan-2-ylpyrazol-4-yl)quinolin-4-yl]oxyphenyl]cyclopropane-1,1-dicarboxamide]
22 | 10 to 100 | N#Cc1cc(-c2ccc3c(Oc4ccc(NC(=O)C5(C(=O)Nc6ccc(F)cc6)CC5)cc4)ccnc3c2)ccn1 [Compound 34, 1-N-[4-[7-(2-Cyanopyridin-4-yl)quinolin-4-yl]oxyphenyl]-1-N′-(4-fluorophenyl)cyclopropane-1,1-dicarboxamide]
